Assays:
C-RAF = target: T1, C-RAF (Homo sapiens, UniProt P04049, Y340E/Y341E); assay: In vitro Raf activity determination (Alpha Screen, biotinylated kinase-dead MEK1 substrate), C-Raf; type: biochemical; settings: c-Raf approximately 4 nM; ATP 1 μM; pre-incubation 60 minutes; reaction 1 hour at room temperature
T1 construct: His tag (implied by nickel chromatography) (cleaved yes); StrepII tag (cleaved yes); made in house; host or cells: Sf9 insect cells (baculovirus), CRAF and h14-3-3 zeta co-expressed; MEK1 substrate from E. coli
T1 sequence (P04049 whole entry Y340E/Y341E): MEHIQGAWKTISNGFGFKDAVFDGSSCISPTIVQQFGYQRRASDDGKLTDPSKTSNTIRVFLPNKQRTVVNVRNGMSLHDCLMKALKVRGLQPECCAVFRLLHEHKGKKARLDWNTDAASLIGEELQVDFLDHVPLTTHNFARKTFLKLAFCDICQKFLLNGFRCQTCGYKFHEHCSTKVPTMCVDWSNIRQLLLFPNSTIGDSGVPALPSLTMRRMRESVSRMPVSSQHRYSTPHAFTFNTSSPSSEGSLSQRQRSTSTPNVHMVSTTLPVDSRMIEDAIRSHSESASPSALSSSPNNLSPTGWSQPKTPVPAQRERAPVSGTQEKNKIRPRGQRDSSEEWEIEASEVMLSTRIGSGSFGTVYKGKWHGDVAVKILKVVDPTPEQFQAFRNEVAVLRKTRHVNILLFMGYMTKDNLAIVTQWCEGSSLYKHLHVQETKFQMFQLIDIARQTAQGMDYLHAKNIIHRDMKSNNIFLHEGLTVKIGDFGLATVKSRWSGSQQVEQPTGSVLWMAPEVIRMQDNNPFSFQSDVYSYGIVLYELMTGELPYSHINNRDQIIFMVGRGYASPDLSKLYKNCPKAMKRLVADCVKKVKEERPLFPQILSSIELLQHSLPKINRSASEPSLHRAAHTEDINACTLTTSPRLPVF
T1 sequence (P63104 whole entry partner): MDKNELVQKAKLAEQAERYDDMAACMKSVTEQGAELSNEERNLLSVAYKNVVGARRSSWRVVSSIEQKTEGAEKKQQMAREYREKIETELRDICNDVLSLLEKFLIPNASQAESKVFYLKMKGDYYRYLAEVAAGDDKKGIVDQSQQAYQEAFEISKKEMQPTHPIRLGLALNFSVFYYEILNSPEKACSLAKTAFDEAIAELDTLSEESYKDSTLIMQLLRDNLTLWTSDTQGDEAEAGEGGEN
Method in brief: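 AlphaScreen read-out of MEK phosphorylation using an anti-phospho-MEK1/2 antibody after a 1 hour room-temperature reaction at 1 μM ATP. Enzyme: approximately 4 nM Sf9-expressed full-length activated C-Raf (Y340E/Y341E, with 14-3-3ζ) on approximately 10 nM biotinylated K97R MEK1, after 60 min compound preincubation. IC50 by non-linear fit.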

b-Raf (V600E) = target: T2, b-Raf (V600E) (Homo sapiens, UniProt P15056, V600E); assay: In vitro Raf activity determination (Alpha Screen, biotinylated kinase-dead MEK1 substrate), B-Raf; type: biochemical; settings: b-Raf (V600E) approximately 4 pM; ATP 10 μM; pre-incubation 60 minutes; reaction 3 hours at room temperature
T2 construct: made in house
T2 sequence (P15056 whole entry V600E): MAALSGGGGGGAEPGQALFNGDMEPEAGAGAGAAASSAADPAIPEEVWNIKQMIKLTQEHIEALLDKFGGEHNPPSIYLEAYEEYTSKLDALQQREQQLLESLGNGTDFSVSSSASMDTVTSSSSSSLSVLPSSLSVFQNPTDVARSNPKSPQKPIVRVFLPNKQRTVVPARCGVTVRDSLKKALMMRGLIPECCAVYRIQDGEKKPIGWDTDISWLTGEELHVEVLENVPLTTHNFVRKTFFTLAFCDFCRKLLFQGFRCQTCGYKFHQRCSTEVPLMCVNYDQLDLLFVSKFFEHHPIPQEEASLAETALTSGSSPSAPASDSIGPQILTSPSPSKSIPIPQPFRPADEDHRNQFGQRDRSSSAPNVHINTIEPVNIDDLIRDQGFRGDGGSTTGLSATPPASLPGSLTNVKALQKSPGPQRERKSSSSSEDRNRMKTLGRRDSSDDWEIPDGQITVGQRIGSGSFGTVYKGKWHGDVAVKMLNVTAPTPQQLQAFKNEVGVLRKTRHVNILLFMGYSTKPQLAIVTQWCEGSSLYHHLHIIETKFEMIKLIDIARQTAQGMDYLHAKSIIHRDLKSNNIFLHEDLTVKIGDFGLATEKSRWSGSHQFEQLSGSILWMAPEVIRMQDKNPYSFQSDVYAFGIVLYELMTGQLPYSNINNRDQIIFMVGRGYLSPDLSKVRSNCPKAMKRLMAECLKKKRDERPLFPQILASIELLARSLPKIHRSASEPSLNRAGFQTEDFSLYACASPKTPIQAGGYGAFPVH
Method in brief: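 IC50 from non-linear regression of AlphaScreen phospho-MEK signal (anti-p-MEK1/2 antibody). b-Raf(V600E), about 4 pM, phosphorylated ~10 nM biotinylated K97R MEK1 with 10 μM ATP for 3 h at room temperature after 60 min compound pre-incubation; buffer pH 7.5 Tris, 15 mM MgCl2, 1 mM DTT.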

Row | SMILES | IC50 (C-RAF) | IC50 (b-Raf (V600E))
1 | Cc1ccc(NC(=O)c2cc(C(C)(C)C#N)ccn2)cc1-c1cnc(N2CC(C)(O)C2)c(C#N)c1 [Example 232, N-(3-(5-cyano-6-(3-hydroxy-3-methylazetidin-1-yl)pyridin-3-yl)-4-methylphenyl)-4-(2-cyanopropan-2-yl)picolinamide] | 0.42 nM | 3.18 nM
2 | Cc1ccc(NC(=O)c2cc(C(C)(C)C#N)ccn2)cc1-c1cnc(N2CCOCC2)c(C#N)c1 [Example 233, N-(3-(5-cyano-6-morpholinopyridin-3-yl)-4-methylphenyl)-4-(2-cyanopropan-2-yl)picolinamide] | 0.187 nM | 1.34 nM
3 | Cc1ncc(NC(=O)c2cc(C(C)(C)O)ccn2)cc1-c1cnc(N2CCOCC2)c(C#N)c1 [Example 234, N-(5′-cyano-2-methyl-6′-morpholino-[3,3′-bipyridin]-5-yl)-4-(2-hydroxypropan-2-yl)picolinamide] | 2.23 nM | 3.87 nM
4 | Cc1ncc(NC(=O)c2cc(C(C)(C)O)ccn2)cc1-c1cnc(N2CC(C)(O)C2)c(C#N)c1 [Example 235, N-(5′-cyano-6′-(3-hydroxy-3-methylazetidin-1-yl)-2-methyl-[3,3′-bipyridin]-5-yl)-4-(2-hydroxypropan-2-yl)picolinamide] | 5.8 nM | 27.9 nM
5 | Cc1ccc(NC(=O)c2cc(C(C)(C)O)ccn2)cc1-c1cnc(N2CC(C)(O)C2)c(C#N)c1 [Example 236, N-(3-(5-cyano-6-(3-hydroxy-3-methylazetidin-1-yl)pyridin-3-yl)-4-methylphenyl)-4-(2-hydroxypropan-2-yl)picolinamide] | 1.55 nM | 5.78 nM
6 | Cc1ccc(NC(=O)c2cc(C(C)(C)O)ccn2)cc1-c1cnc(N2CCOCC2)c(C#N)c1 [Example 237, N-(3-(5-cyano-6-morpholinopyridin-3-yl)-4-methylphenyl) 4-(2-hydroxypropan-2-yl)picolinamide] | 0.695 nM | 2.25 nM
7 | Cc1ncc(NC(=O)c2cc(C(C)(F)F)ccn2)cc1-c1cnc(N2CCOCC2)c(C#N)c1 [Example 238, N-(5′-cyano-2-methyl-6′-morpholino-[3,3′-bipyridin]-5-yl)-4-(1,1-difluoroethyl) picolinamide] | 0.333 nM | 2.25 nM
8 | Cc1ncc(NC(=O)c2cc(C(C)(F)F)ccn2)cc1-c1cnc(N2CC(C)(O)C2)c(C#N)c1 [Example 239] | 0.711 nM | 6.38 nM
9 | Cc1ccc(NC(=O)c2cc(C(C)(F)F)ccn2)cc1-c1cnc(N2CC(C)(O)C2)c(C#N)c1 [Example 240, N-(3-(5-cyano-6-(3-hydroxy-3-methylazetidin-1-yl)pyridin-3-yl)-4-methylphenyl)-4-(1,1-difluoroethyl) picolinamide] | 0.519 nM | 3.51 nM
10 | Cc1ccc(NC(=O)c2cc(C(C)(F)F)ccn2)cc1-c1cnc(N2CCOCC2)c(C#N)c1 [Example 241, N-(3-(5-cyano-6-morpholinopyridin-3-yl)-4-methylphenyl)-4-(1,1-difluoroethyl) picolinamide] | 0.279 nM | 1.5 nM
11 | Cc1ncc(NC(=O)c2cc(C(C)(C)F)ccn2)cc1-c1cnc(N2CCOCC2)c(C#N)c1 [Example 242, N-(5′-cyano-2-methyl-6′-morpholino-[3,3′-bipyridin]-5-yl)-4-(2-fluoropropan-2-yl)picolinamide] | 0.539 nM | 3.18 nM
12 | Cc1ncc(NC(=O)c2cc(C(C)(C)F)ccn2)cc1-c1cnc(N2CC(C)(O)C2)c(C#N)c1 [Example 243, N-(5′-cyano-6′-(3-hydroxy-3-methylazetidin-1-yl)-2-methyl-[3,3′-bipyridin]-5-yl)-4-(2-fluoropropan-2-yl)picolinamide] | 1.03 nM | 9.83 nM
13 | Cc1ccc(NC(=O)c2cc(C(C)(C)F)ccn2)cc1-c1cnc(N2CC(C)(O)C2)c(C#N)c1 [Example 244, N-(3-(5-cyano-6-(3-hydroxy-3-methylazetidin-1-yl)pyridin-3-yl)-4-methylphenyl)-4-(2-fluoropropan-2-yl)picolinamide] | 0.876 nM | 7.18 nM
14 | Cc1ccc(NC(=O)c2cc(C(C)(C)F)ccn2)cc1-c1cnc(N2CCOCC2)c(C#N)c1 [Example 245, N-(3-(5-cyano-6-morpholinopyridin-3-yl)-4-methylphenyl)-4-(2-fluoropropan-2-yl)picolinamide] | 0.533 nM | 3.24 nM
15 | Cc1ncc(NC(=O)c2cc(C(C)(C)N)cc(C(F)(F)F)c2)cc1-c1cnc(N2CCOCC2)c(C#N)c1 [Example 246, 3-(2-aminopropan-2-yl)-N-(5′-cyano-2-methyl-6′-morpholino-[3,3′-bipyridin]-5-yl)-5-(trifluoromethyl) benzamide] | 1.85 nM | 7.67 nM
16 | Cc1ncc(NC(=O)c2cc(C(C)(C)N)cc(C(F)(F)F)c2)cc1-c1cnc(N2CC(C)(O)C2)c(C#N)c1 [Example 247, 3-(2-aminopropan-2-yl)-N-(5′-cyano-6′-(3-hydroxy-3-methylazetidin-1-yl)-2-methyl-[3,3′-bipyridin]-5-yl)-5-(trifluoromethyl) benzamide] | 4.96 nM | 30.7 nM
17 | Cc1ccc(NC(=O)c2cc(C(C)(C)N)cc(C(F)(F)F)c2)cc1-c1cnc(N2CC(C)(O)C2)c(C#N)c1 [Example 248, 3-(2-aminopropan-2-yl)-N-(3-(5-cyano-6-(3-hydroxy-3-methylazetidin-1-yl)pyridin-3-yl)-4-methylphenyl)-5-(trifluoromethyl) benzamide] | 2.02 nM | 10.6 nM
18 | Cc1ccc(NC(=O)c2cc(C(C)(C)N)cc(C(F)(F)F)c2)cc1-c1cnc(N2CCOCC2)c(C#N)c1 [Example 249, 3-(2-aminopropan-2-yl)-N-(3-(5-cyano-6-morpholinopyridin-3-yl)-4-methylphenyl)-5-(trifluoromethyl) benzamide] | 0.653 nM | 2.54 nM
19 | CCn1cc(C(=O)Nc2ccc(C)c(-c3cnc(N(C)C)c(C#N)c3)c2)cc(C(F)(F)F)c1=O [Example 250, N-(3-(5-cyano-6-(dimethylamino)pyridin-3-yl)-4-methylphenyl)-1-ethyl-6-oxo-5-(trifluoromethyl)-1,6-dihydropyridine-3-carboxamide] | 0.401 nM | 1.96 nM
20 | CCn1cc(C(=O)Nc2ccc(C)c(-c3cnc(N(C)C)c(C#N)c3)c2)c(C)n1 [Example 251, N-(3-(5-cyano-6-(dimethylamino)pyridin-3-yl)-4-methylphenyl)-1-ethyl-3-methyl-1H-pyrazole-4-carboxamide] | 7.28 nM | 59.7 nM
21 | Cc1ccc(NC(=O)c2cn(C)nc2C)cc1-c1cnc(N(C)C)c(C#N)c1 [Example 252, N-(3-(5-cyano-6-(dimethylamino)pyridin-3-yl)-4-methylphenyl)-1,3-dimethyl-1H-pyrazole-4-carboxamide] | 17.6 nM | 196 nM
22 | Cc1ccc(NC(=O)c2cn(C(C)C)nc2C)cc1-c1cnc(N(C)C)c(C#N)c1 [Example 253, N-(3-(5-cyano-6-(dimethylamino)pyridin-3-yl)-4-methylphenyl)-1-isopropyl-3-methyl-1H-pyrazole-4-carboxamide] | 2.5 nM | 16.5 nM
23 | Cc1cc(C(=O)Nc2ccc(C)c(-c3cnc(N(C)C)c(C#N)c3)c2)n(C)n1 [Example 254, N-(3-(5-cyano-6-(dimethylamino)pyridin-3-yl)-4-methylphenyl)-1,3-dimethyl-1H-pyrazole-5-carboxamide] | 38.4 nM | 278 nM
24 | Cc1ccc(NC(=O)c2cc(C3CC3)nn2C)cc1-c1cnc(N(C)C)c(C#N)c1 [Example 255, N-(3-(5-cyano-6-(dimethylamino)pyridin-3-yl)-4-methylphenyl)-3-cyclopropyl-1-methyl-1H-pyrazole-5-carboxamide] | 4.84 nM | 35.6 nM
25 | Cc1ccc(NC(=O)c2ccnc(C(C)(C)O)c2)cc1-c1cnc(N(C)C)c(C#N)c1 [Example 256, N-(3-(5-cyano-6-(dimethylamino)pyrdin-3-yl)-4-methylphenyl)-2-(2-hydroxypropan-2-yl)isonicotinamide] | 0.353 nM | 1.52 nM
26 | Cc1cc(CC(=O)Nc2ccc(C)c(-c3cnc(N(C)C)c(C#N)c3)c2)on1 [Example 257, N-(3-(5-cyano-6-(dimethylamino)pyridin-3-yl)-4-methylphenyl)-2-(3-methylisoxazol-5-yl)acetamide] | 1.36 nM | 12.9 nM
27 | Cc1ccc(NC(=O)c2cc(C(C)C)on2)cc1-c1cnc(N(C)C)c(C#N)c1 [Example 258, N-(3-(5-cyano-6-(dimethylamino)pyridin-3-yl)-4-methylphenyl)-5-isopropylisoxazole-3-carboxamide] | 0.158 nM | 1.18 nM
28 | Cc1ccc(NC(=O)c2cc(C3CC3)on2)cc1-c1cnc(N(C)C)c(C#N)c1 [Example 259, N-(3-(5-cyano-6-(dimethylamino)pyridin-3-yl)-4-methylphenyl)-5-cyclopropylisoxazole-3-carboxamide] | 0.435 nM | 3.79 nM
29 | Cc1ccc(NC(=O)c2cccc(S(C)(=O)=O)c2)cc1-c1cnc(N(C)C)c(C#N)c1 [Example 260, N-(3-(5-cyano-6-(dimethylamino)pyridin-3-yl)-4-methylphenyl)-3-(methylsulfonyl) benzamide] | 0.115 nM | 0.297 nM

Reference: patent publication US10392404B2, “Compounds and compositions as kinase inhibitors” (NOVARTIS AG, priority 2014, dated 2019)
